Data taken from US20250197394A1, “ANTIBACTERIALS BASED ON MONOCYCLIC FRAGMENTS COUPLED TO AMINOPIPERIDINE NAPHTHYRIDINE SCAFFOLD” (UNIVERZA V LJUBLJANI, priority 2019, published 2025).
pIC50: −log10 of the molar value. In brackets after ≈: the same amount, converted by molar mass.

What was measured:
[1] = target: T1, Escherichia coli DNA gyrase (Escherichia coli, UniProt P0AES4+P0AES6); test: Gyrase Supercoiling High Throughput Plate assay (E. coli); type: biochemical; details: mean of two to four independent measurements
T1 construct: purchased Inspiralis (Norwich, UK)

[2] = system: methicillin-resistant Staphylococcus schleiferi subspecies coagulans; test: MIC broth microdilution, MRSS; type: cell-based; details: 20 hours of incubation
Procedure: (§1) Minimal inhibitory concentrations were determined by the broth microdilution method in 96-wells plate format following the Clinical and Laboratory Standards Institute (CLSI) guidelines given in “Methods for Dilution Antimicrobial Susceptibility Tests for Bacteria That Grow Aerobically, Approved Standard, 10th Edition, CLSI document M07-A10, Wayne, PA: Clinical and Laboratory Standards Institute, USA, 2015” and European Committee on Antimicrobial Susceptibility Testing (EUCAST) recommendations given in “The European Committee on Antimicrobial Susceptibility Testing, Breakpoint tables for interpretation of MICs and zone diameters, Version 5.0, 2015”. All exemplified compounds were tested on several Gram-positive (S. aureus, methicillin-resistant Staphylococcus aureus (MRSA), methicillin-resistant
(§2) Staphylococcus schleiferi subspecies coagulans, methicillin-resistant Staphylococcus pseudintermedius
(§3) (S-48, S-84, S-35, S-52, S-40 and S-51), Streptococcus agalactiae and Enterococcus faecalis) and Gram-negative bacteria (E. coli, Salmonella Alachua and Pseudomonas aeruginosa).
(§4) The MICs were visually determined as the lowest compound concentration inhibiting bacterial growth after 20 hours of incubation time. […] MIC values are represented in Table 2.

[3] = system: methicillin-resistant Staphylococcus pseudintermedius S-84; test: MIC broth microdilution, MRSP S-84; type: cell-based; details: 20 hours of incubation
Procedure: as §1, §2, §3, §4

[4] = system: methicillin-resistant Staphylococcus pseudintermedius S-48; test: MIC broth microdilution, MRSP S-48; type: cell-based; details: 20 hours of incubation
Procedure: as §1, §2, §3, §4

[5] = system: methicillin-resistant Staphylococcus pseudintermedius S-35; test: MIC broth microdilution, MRSP S-35; type: cell-based; details: 20 hours of incubation
Procedure: as §1, §2, §3, §4

[6] = system: methicillin-resistant Staphylococcus pseudintermedius S-52; test: MIC broth microdilution, MRSP S-52; type: cell-based; details: 20 hours of incubation
Procedure: as §1, §2, §3, §4

[7] = system: methicillin-resistant Staphylococcus pseudintermedius S-40; test: MIC broth microdilution, MRSP S-40; type: cell-based; details: 20 hours of incubation
Procedure: as §1, §2, §3, §4

[8] = system: methicillin-resistant Staphylococcus pseudintermedius S-51; test: MIC broth microdilution, MRSP S-51; type: cell-based; details: 20 hours of incubation
Procedure: as §1, §2, §3, §4

E. faecalis DRK 057 = test: MIC broth microdilution, E. faecalis; type: cell-based; details: Enterococcus faecalis, DRK057, 20 hours of incubation
Procedure: as §1, §2, §3, §4

P. aeruginosa RDK 184 = test: MIC broth microdilution, P. aeruginosa; type: cell-based; details: Pseudomonas aeruginosa, RDK184, 20 hours of incubation
Procedure: as §1, §2, §3, §4

C. jejuni RDK-135 = test: MIC broth microdilution, C. jejuni; type: cell-based; details: Campylobacter jejuni, RDK135, 20 hours of incubation
Procedure: as §1, §4

HUVEC (ATCC) cell line = test: Cytotoxicity, metabolic cell activity (CellTiter 96 AQueous One), HUVEC; type: cell-based; details: two independent experiments; for mean percentage of metabolic activity of treated cells, HUVEC 1 μM: compound 1 μM; for mean percentage of metabolic activity of treated cells, HUVEC 50 μM: compound 50 μM
Procedure: (§5) Cytotoxicity was assessed in assay measuring metabolic cell activity performed on HepG2 (ATCC) and HUVEC (ATCC) cell lines according to the protocol of CellTiter 96® AQueous One Solution Cell Proliferation Assay 2018, Promega, USA, 2001. The method involved absorbance measurements after the treatment of cells with compounds at concentrations 1 μM and 50 μM.
(§6) The results are given as the mean percentage of metabolic activity of treated cells from two independent experiments and are represented in Table 3.

HepG2 (ATCC) cell line = test: Cytotoxicity, metabolic cell activity (CellTiter 96 AQueous One), HepG2; type: cell-based; details: two independent experiments; for mean percentage of metabolic activity of treated cells, HepG2 1 μM: HepG2, compound 1 μM; for mean percentage of metabolic activity of treated cells, HepG2 50 μM: HepG2, compound 50 μM
Procedure: as §5, §6

[9] = target: Staphylococcus aureus DNA gyrase (Staphylococcus aureus, UniProt P0A0K8+P20831); test: biochemical
[10] = system: methicillin-resistant Staphylococcus aureus (MRSA); test: MIC broth microdilution, MRSA; type: cell-based; details: 20 hours of incubation
Procedure: as §1, §2, §3, §4

T1 sequence (P0AES4 whole entry, one chain of several): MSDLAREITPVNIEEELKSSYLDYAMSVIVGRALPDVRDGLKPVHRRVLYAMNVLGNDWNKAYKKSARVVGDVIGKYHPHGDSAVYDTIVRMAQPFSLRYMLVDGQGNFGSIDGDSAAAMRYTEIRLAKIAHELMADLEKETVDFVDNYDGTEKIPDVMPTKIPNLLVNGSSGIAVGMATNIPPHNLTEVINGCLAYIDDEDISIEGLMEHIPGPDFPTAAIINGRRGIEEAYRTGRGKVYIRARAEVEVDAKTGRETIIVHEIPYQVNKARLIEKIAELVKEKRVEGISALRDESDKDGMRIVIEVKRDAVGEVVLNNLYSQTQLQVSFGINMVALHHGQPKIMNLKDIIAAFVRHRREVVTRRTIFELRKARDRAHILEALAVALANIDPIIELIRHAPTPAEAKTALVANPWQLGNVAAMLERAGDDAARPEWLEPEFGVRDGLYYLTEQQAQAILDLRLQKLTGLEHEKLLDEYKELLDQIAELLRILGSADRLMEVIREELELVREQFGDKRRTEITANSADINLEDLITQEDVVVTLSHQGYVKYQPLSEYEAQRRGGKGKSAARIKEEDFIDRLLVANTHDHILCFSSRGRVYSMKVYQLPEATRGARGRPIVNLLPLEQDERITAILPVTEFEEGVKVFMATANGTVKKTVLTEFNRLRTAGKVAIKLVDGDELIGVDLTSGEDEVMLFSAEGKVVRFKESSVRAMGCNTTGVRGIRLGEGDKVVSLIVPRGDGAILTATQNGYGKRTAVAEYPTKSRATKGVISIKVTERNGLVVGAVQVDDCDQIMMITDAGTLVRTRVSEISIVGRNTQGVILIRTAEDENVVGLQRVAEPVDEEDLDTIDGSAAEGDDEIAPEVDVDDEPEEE
Sequence of Staphylococcus aureus DNA gyrase (P20831 whole entry): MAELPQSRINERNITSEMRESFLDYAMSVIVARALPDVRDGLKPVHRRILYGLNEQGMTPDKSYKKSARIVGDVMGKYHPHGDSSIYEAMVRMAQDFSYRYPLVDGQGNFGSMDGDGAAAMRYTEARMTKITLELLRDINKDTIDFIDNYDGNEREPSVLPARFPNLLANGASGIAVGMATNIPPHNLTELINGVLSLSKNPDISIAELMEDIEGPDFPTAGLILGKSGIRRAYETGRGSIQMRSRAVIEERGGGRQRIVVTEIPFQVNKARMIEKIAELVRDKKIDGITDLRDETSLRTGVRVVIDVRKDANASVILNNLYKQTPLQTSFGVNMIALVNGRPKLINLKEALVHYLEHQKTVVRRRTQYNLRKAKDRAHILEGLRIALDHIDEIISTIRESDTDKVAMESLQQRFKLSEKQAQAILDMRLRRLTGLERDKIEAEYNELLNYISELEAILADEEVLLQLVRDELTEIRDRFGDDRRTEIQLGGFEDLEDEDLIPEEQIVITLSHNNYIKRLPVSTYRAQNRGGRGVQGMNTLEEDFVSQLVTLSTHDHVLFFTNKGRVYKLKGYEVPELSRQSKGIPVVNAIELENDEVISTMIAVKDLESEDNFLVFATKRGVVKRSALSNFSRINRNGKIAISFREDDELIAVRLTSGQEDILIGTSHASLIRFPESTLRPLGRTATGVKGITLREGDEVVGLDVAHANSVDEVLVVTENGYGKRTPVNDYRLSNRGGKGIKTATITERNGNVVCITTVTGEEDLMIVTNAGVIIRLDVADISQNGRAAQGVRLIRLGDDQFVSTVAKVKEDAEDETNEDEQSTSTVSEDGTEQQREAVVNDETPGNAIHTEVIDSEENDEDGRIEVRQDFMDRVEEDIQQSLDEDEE
Sequence of Staphylococcus aureus DNA gyrase (P0A0K8 whole entry): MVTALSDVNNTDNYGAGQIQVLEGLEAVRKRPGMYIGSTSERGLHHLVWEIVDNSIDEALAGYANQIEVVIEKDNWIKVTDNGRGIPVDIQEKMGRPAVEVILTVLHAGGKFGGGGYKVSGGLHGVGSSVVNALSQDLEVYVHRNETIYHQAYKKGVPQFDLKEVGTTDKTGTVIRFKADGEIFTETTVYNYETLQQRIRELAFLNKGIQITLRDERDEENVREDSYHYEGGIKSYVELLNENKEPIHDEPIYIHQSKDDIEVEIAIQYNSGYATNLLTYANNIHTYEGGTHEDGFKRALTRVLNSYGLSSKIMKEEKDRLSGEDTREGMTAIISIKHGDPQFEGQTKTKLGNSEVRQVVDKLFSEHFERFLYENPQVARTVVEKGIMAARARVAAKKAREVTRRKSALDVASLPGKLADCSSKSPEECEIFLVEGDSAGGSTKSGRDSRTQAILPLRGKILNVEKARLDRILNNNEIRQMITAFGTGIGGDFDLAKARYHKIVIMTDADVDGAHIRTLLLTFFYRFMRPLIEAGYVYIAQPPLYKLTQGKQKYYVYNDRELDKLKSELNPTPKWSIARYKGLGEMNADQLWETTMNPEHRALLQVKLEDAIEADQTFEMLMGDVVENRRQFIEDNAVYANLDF

SMILES	pIC50 [1]	MIC [2]	MIC [3]	MIC [4]	MIC [5]	MIC [6]	MIC [7]	MIC [8]	MIC (E. faecalis DRK 057)	MIC (P. aeruginosa RDK 184)	MIC (C. jejuni RDK-135)	mean percentage of metabolic activity of treated cells, HUVEC 1 μM (HUVEC (ATCC) cell line)	mean percentage of metabolic activity of treated cells, HUVEC 50 μM (HUVEC (ATCC) cell line)	mean percentage of metabolic activity of treated cells, HepG2 1 μM (HepG2 (ATCC) cell line)	mean percentage of metabolic activity of treated cells, HepG2 50 μM (HepG2 (ATCC) cell line)	pIC50 [9]	MIC [10]
COc1ccc2nccc(CCN3CCC(NCc4ccc(OC(F)F)c(OC)c4)CC3)c2n1 [Compound C9, N-(4-(difluoromethoxy)-3-methoxybenzyl)-1-(2-(6-methoxy-1,5-naphthyridin-4-yl)ethyl)piperidin-4-amine]	5.41	0.125 µg/mL (≈ 0.265 µM)	2 µg/mL (≈ 4.23 µM)	2 µg/mL (≈ 4.23 µM)	2 µg/mL (≈ 4.23 µM)	4 µg/mL (≈ 8.46 µM)	2 µg/mL (≈ 4.23 µM)	2 µg/mL (≈ 4.23 µM)	16 µg/mL (≈ 33.9 µM)	> 128 µg/mL	2 µg/mL (≈ 4.23 µM)	89.6 ± 3.8%	0.2 ± 1.0%	89.7 ± 3.8%	−0.3 ± 2.1%	6.46	–
COc1ccc2nccc(CCN3CCC(NCc4ccc(C(N)=O)cc4)CC3)c2n1 [Compound C3, 4-((1-(2-(6-methoxy-1,5-naphthyridin-4-yl)ethyl)piperidin-4-ylamino)methyl) benzamide]	< 4.00	0.25 µg/mL (≈ 0.596 µM)	4 µg/mL (≈ 9.53 µM)	4 µg/mL (≈ 9.53 µM)	4 µg/mL (≈ 9.53 µM)	8 µg/mL (≈ 19.1 µM)	4 µg/mL (≈ 9.53 µM)	4 µg/mL (≈ 9.53 µM)	128 µg/mL (≈ 305 µM)	> 128 µg/mL	128 µg/mL (≈ 305 µM)	105.8 ± 3.5%	66.1 ± 3.5%	94.0 ± 0.8%	48.3 ± 1.0%	5.74	–
COc1ccc2nccc(CCN3CCC(NCc4ccc(N(C)C)cc4)CC3)c2n1 [Compound C4, N-(4-(dimethylamino)benzyl)-1-(2-(6-methoxy-1,5-naphthyridin-4-yl)ethyl)piperidin-4-amine]	4.92	0.015 µg/mL (≈ 0.0358 µM)	0.125 µg/mL (≈ 0.298 µM)	0.25 µg/mL (≈ 0.596 µM)	0.25 µg/mL (≈ 0.596 µM)	0.5 µg/mL (≈ 1.19 µM)	0.125 µg/mL (≈ 0.298 µM)	0.25 µg/mL (≈ 0.596 µM)	1 µg/mL (≈ 2.38 µM)	> 128 µg/mL	4 µg/mL (≈ 9.53 µM)	105.9 ± 0.9%	0.1 ± 0.6%	102.5 ± 2.3%	0.8 ± 1.0%	7.17	0.025 µg/mL (≈ 0.0596 µM)
COc1ccc2nccc(CCN3CCC(NCc4ccc(CO)cc4)CC3)c2n1 [Compound C2, (4-((1-(2-(6-methoxy-1,5-naphthyridin-4-yl)ethyl)piperidin-4-ylamino)methyl)phenyl)methanol]	4.25	0.25 µg/mL (≈ 0.615 µM)	4 µg/mL (≈ 9.84 µM)	4 µg/mL (≈ 9.84 µM)	4 µg/mL (≈ 9.84 µM)	8 µg/mL (≈ 19.7 µM)	4 µg/mL (≈ 9.84 µM)	4 µg/mL (≈ 9.84 µM)	8 µg/mL (≈ 19.7 µM)	> 128 µg/mL	32 µg/mL (≈ 78.7 µM)	97.7 ± 9.4%	63.1 ± 2.1%	100.2 ± 1.5%	24.1 ± 0.9%	5.36	–
COc1ccc2nccc(CCN3CCC(NCc4ccccc4)CC3)c2n1 [Compound C1, N-benzyl-1-(2-(6-methoxy-1,5-naphthyridin-4-yl)ethyl)piperidin-4-amine]	4.39	0.25 µg/mL (≈ 0.664 µM)	4 µg/mL (≈ 10.6 µM)	4 µg/mL (≈ 10.6 µM)	4 µg/mL (≈ 10.6 µM)	16 µg/mL (≈ 42.5 µM)	4 µg/mL (≈ 10.6 µM)	4 µg/mL (≈ 10.6 µM)	16 µg/mL (≈ 42.5 µM)	> 128 µg/mL	32 µg/mL (≈ 85 µM)	92.9 ± 16.6%	63.4 ± 11.3%	107.1 ± 7.2%	1.4 ± 0.3%	5.99	–
COc1ccc2nccc(CCN3CCC(NCc4ccc(F)cc4)CC3)c2n1 [Compound C5, N-(4-fluorobenzyl)-1-(2-(6-methoxy-1,5-naphthyridin-4-yl)ethyl)piperidin-4-amine]	4.77	0.125 µg/mL (≈ 0.317 µM)	2 µg/mL (≈ 5.07 µM)	2 µg/mL (≈ 5.07 µM)	2 µg/mL (≈ 5.07 µM)	8 µg/mL (≈ 20.3 µM)	2 µg/mL (≈ 5.07 µM)	2 µg/mL (≈ 5.07 µM)	8 µg/mL (≈ 20.3 µM)	> 128 µg/mL	1 µg/mL (≈ 2.53 µM)	105.2 ± 15.1%	75.6 ± 12.0%	98.0 ± 3.9%	−1.3 ± 2.2%	6.26	–
COc1ccc2nccc(CCN3CCC(NCc4ccc(I)cc4)CC3)c2n1 [Compound C8, N-(4-iodobenzyl)-1-(2-(6-methoxy-1,5-naphthyridin-4-yl)ethyl)piperidin-4-amine]	–	0.002 µg/mL (≈ 0.00398 µM)	0.015 µg/mL (≈ 0.0299 µM)	0.015 µg/mL (≈ 0.0299 µM)	0.15 µg/mL (≈ 0.299 µM)	0.062 µg/mL (≈ 0.123 µM)	≤ 0.0078 µg/mL	0.0078 µg/mL (≈ 0.0155 µM)	1 µg/mL (≈ 1.99 µM)	32 µg/mL (≈ 63.7 µM)	0.015 µg/mL (≈ 0.0299 µM)	108.0 ± 6.6%	−0.3 ± 0.5%	102.6 ± 2.3%	0.5 ± 0.3%	7.96	0.015 µg/mL (≈ 0.0299 µM)
C=CCn1cc(CNC2CCN(CCc3ccnc4ccc(OC)nc34)CC2)cn1 [Compound C11, N-((1-allyl-^1H-pyrazol-4-yl)methyl)-1-(2-(6-methoxy-1,5-naphthyridin-4-yl)ethyl)piperidin-4-amine]	4.78	0.125 µg/mL (≈ 0.307 µM)	< 1 µg/mL	2 µg/mL (≈ 4.92 µM)	2 µg/mL (≈ 4.92 µM)	4 µg/mL (≈ 9.84 µM)	1 µg/mL (≈ 2.46 µM)	2 µg/mL (≈ 4.92 µM)	8 µg/mL (≈ 19.7 µM)	> 128 µg/mL	8 µg/mL (≈ 19.7 µM)	88.6 ± 21.2%	84.2 ± 19.5%	108.5 ± 6.3%	77.0 ± 2.4%	5.96	2 µg/mL (≈ 4.92 µM)
COc1ccc2nccc(CCN3CCC(NCc4ccc(OC(F)F)c(O)c4)CC3)c2n1 [Compound C10, 2-(difluoromethoxy)-5-((1-(2-(6-methoxy-1,5-naphthyridin-4-yl)ethyl)piperidin-4-ylamino)methyl)phenol]	5.36	0.25 µg/mL (≈ 0.545 µM)	0.25 µg/mL (≈ 0.545 µM)	0.25 µg/mL (≈ 0.545 µM)	0.5 µg/mL (≈ 1.09 µM)	2 µg/mL (≈ 4.36 µM)	0.25 µg/mL (≈ 0.545 µM)	0.25 µg/mL (≈ 0.545 µM)	4 µg/mL (≈ 8.72 µM)	> 128 µg/mL	0.016 µg/mL (≈ 0.0349 µM)	96.4 ± 9.1%	2.5 ± 0.3%	100.5 ± 4.8%	−0.4 ± 1.6%	6.48	–
COc1ccc2nccc(CCN3CCC(NCc4ccc(Br)cc4)CC3)c2n1 [Compound C7, N-(4-bromobenzyl)-1-(2-(6-methoxy-1,5-naphthyridin-4-yl)ethyl)piperidin-4-amine]	–	≤ 0.0078 µg/mL	0.062 µg/mL (≈ 0.136 µM)	0.062 µg/mL (≈ 0.136 µM)	0.062 µg/mL (≈ 0.136 µM)	0.125 µg/mL (≈ 0.274 µM)	0.031 µg/mL (≈ 0.0681 µM)	0.062 µg/mL (≈ 0.136 µM)	1 µg/mL (≈ 2.2 µM)	128 µg/mL (≈ 281 µM)	0.5 µg/mL (≈ 1.1 µM)	92.0 ± 4.5%	−0.5 ± 0.2%	84.3 ± 8.9%	−0.1 ± 0.3%	8.15	–
